Measured values from US12275729B2 (Merck Sharp & Dohme LLC, priority 2017, dated 2025).

Tests used:
IDO1 [1] = molecular target: T1, IDO1 (Homo sapiens, UniProt P14902); assay: IDO1 Cellular Assay in HeLa Cells Stimulated with IFNγ; format: cell-based; conditions: read-out: Hela IC50
IDO1 [2] = molecular target: T1, IDO1; assay: IDO1 Human Whole Blood Assay; format: cell-based; design: Human whole blood was drawn in sodium heparin coated tubes from healthy internal donors; from tissue; host or cells: human whole blood from healthy donors, stimulated with LPS and IFNγ; conditions: LPS and IFNγ stimulated

T1 sequence (P14902 whole entry): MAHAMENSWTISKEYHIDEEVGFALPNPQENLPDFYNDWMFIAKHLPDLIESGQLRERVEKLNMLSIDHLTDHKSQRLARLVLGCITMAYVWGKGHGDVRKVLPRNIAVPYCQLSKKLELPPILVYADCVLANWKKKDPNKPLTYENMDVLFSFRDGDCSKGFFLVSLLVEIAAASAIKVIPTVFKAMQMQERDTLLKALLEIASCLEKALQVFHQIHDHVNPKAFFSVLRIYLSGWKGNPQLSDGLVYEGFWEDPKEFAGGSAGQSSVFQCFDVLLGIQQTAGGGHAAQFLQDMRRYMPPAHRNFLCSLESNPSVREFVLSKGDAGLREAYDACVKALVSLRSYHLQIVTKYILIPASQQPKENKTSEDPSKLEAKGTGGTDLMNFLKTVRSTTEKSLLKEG

Row | IC50 (IDO1 [1]; about 48 hours) [nM] | IC50 (IDO1 [2]) [nM] | IC50 (IDO1 [1]) [nM] | Compound
1 | 2.15 | 106 | – | Cc1ccc(C(=O)NC2(c3ccc4c(n3)CCCN4c3ccnc(C)n3)CC2)cc1 [Example 303, 4-methyl-N-(1-(5-(2-methylpyrimidin-4-yl)-5,6,7,8-tetrahydro-1,5-naphthyridin-2-yl)cyclopropyl)benzamide]
2 | 472 | 50 | – | CC(NC(=O)c1ccc(F)cc1)c1ccc2c(n1)CCCN2C(=O)c1cc(C(F)(F)F)ccn1 (stereo not drawn) [Example 278, 4-fluoro-N-(1-(5-(4-(trifluoromethyl)picolinoyl)-5,6,7,8-tetrahydro-1,5-naphthyridin-2-yl)ethyl)benzamide]
3 | – | 254 | 3.62 | CC(C(=O)Nc1ccc(F)cc1)c1ccc2c(n1)CCCN2c1ccnc(C2CC2)n1 (stereo not drawn) [Example 365, 2-(5-(2-cyclopropylpyrimidin-4-yl)-5,6,7,8-tetrahydro-1,5-naphthyridin-2-yl)-N-(4-fluorophenyl)propanamide]
4 | 1.9 | 336 | – | O=C(Nc1ccc(Cl)cc1)C1(c2ccc3c(n2)CCN3c2ccccn2)CCC1 [Example 272, N-(4-chlorophenyl)-1-[1-(pyridin-2-yl)-2,3-dihydro-1H-pyrrolo[3,2-b]pyridin-5-yl]cyclobutane-1-carboxamide]
5 | 11.5 | 2980 | – | O=C(Nc1ccc(Cl)cc1)C1(c2ccc3c(n2)CCCN3c2cccc(C3CC3)n2)CCC1 [Example 408, N-(4-chlorophenyl)-1-(5-(6-cyclopropylpyridin-2-yl)-5,6,7,8-tetrahydro-1,5-naphthyridin-2-yl)cyclobutane-1-carboxamide]
6 | 7.3 | 135 | – | CC(NC(=O)c1ccc(F)cc1)c1ccc2c(n1)CCCN2C(=O)c1cc(C(F)F)ccn1 (stereo not drawn) [Example 279, N-(1-(5-(4-(difluoromethyl)picolinoyl)-5,6,7,8-tetrahydro-1,5-naphthyridin-2-yl)ethyl)-4-fluorobenzamide]
7 | 2.42 | 73 | – | Cc1nccc(N2CCCc3nc(C(C)(C)C(=O)Nc4ccc(Cl)cc4)ccc32)n1 [Example 390, N-(4-chlorophenyl)-2-methyl-2-(5-(2-methylpyrimidin-4-yl)-5,6,7,8-tetrahydro-1,5-naphthyridin-2-yl)propanamide]

The remaining lines, values behind:

Row | Compound | IC50 (IDO1 [1]; about 48 hours) [nM] | IC50 (IDO1 [2]) [nM] | IC50 (IDO1 [1]) [nM]
8 | C[C@H](C(=O)Nc1ccc(F)cc1)c1ccc2c(c1)CCCN2C(=O)c1cccc(Cl)c1 (single isomer, unassigned) [Example 52] | 4.9 | 372 | –
9 | CC(C(=O)Nc1ccc(F)cc1)c1ccc2c(n1)CCCN2C(=O)C1CCOCC1 (stereo not drawn) [Example 165, N-(4-fluorophenyl)-2-[5-(oxane-4-carbonyl)-5,6,7,8-tetrahydro-1,5-naphthyridin-2-yl]propanamide] | 2.7 | 34 | –
10 | CC(C)CC(=O)N1CCCc2cc([C@@H](C)NC(=O)c3ccc(Cl)cc3)ccc21 (racemic) [Example 28, 4-chloro-N-{(1R)-1-[1-(3-methyl-butanoyl)-1,2,3,4-tetrahydroquinolin-6-yl]ethyl}benzamide] | 3.8 | 33 | –
11 | CC(C(=O)Nc1ccc(F)cc1)c1ccc2c(n1)CCCN2C(=O)[C@H]1CCCO1 (stereo partly drawn) [Example 137, N-(4-fluorophenyl)-2-(5-((R)-tetrahydrofuran-2-carbonyl)-5,6,7,8-tetrahydro-1,5-naphthyridin-2-yl)propanamide] | 12 | 29 | –
12 | CC(C)(C(=O)Nc1ccc(Cl)cc1)c1ccc2c(c1)CCCN2C(=O)c1cccc(Cl)c1 [Example 187, 2-[1-(3-chlorobenzene-1-carbonyl)-1,2,3,4-tetrahydroquinolin-6-yl]-N-(4-chlorophenyl)-2-methylpropanamide] | 4.5 | 2040 | –
13 | CCN(CC)CCOC(=O)N1CCCc2nc(C(C)NC(=O)c3ccc(F)cc3)ccc21 (stereo not drawn) [Example 324, 2-(diethylamino)ethyl 6-(1-(4-fluorobenzamido)ethyl)-3,4-dihydro-1,5-naphthyridine-1(2H)-carboxylate] | – | 239 | 3400
14 | CC1(C(=O)N2CCCc3cc(C4(C(=O)Nc5ccc(F)cc5)CCC4)ccc32)CC1 [Example 104, N-(4-fluorophenyl)-1-[1-(1-methylcyclopropane-1-carbonyl)-1,2,3,4-tetrahydroquinolin-6-yl]cyclobutane-1-carboxamide] | 3.5 | 115 | –
15 | O=C([C@@H]1CCCCO1)N1CCCc2cc(C3(C(=O)Nc4ccc(F)cc4)CCC3)ccc21 (single isomer, unassigned) [Example 105] | 1.9 | 61 | –
